The text below walks through data of patent publication US20090111846A1, “PHARMACEUTICAL COMPOSITIONS COMPRISING DEXTROMETHORPHAN AND QUINIDINE FOR THE TREATMENT OF DEPRESSION, ANXIETY, AND NEURODEGENERATIVE DISORDERS” (Avanir Pharmaceuticals, priority 2006, published 2009).

“Also recorded” adds a separate entry of the source.

The conditions of data set [1]: cited from earlier work.
The conditions of data set [2]: in vivo. The protocol:
Dosages of other antioxidants will vary with the antioxidant, and are determined on an individual basis.

The subject of data set [3] is neocortical ischemic neuronal damage and edema. Particulars: cited from earlier work.
Data set [4] concerns methotrexate (MTX) neurotoxicity. Particulars: oral 1-2 mg/kg, N=5, all patients; cited from earlier work.
Data set [5] deals with glutamate-induced neurotoxicity in neocortical cell cultures, in vitro hypoxia and glucose deprivation models. Particulars: cited from earlier work.
For data set [6] the following is noted: cited from earlier work. The source holds these as a separate data set.
The test system of data set [7] is perioperative brain injury. Particulars: cited from earlier work.
The conditions of data set [8]: ALS, detectable in only 1 of 7 patients, 4.8 to 10 mg/kg/day, at 3 months; cited from earlier work.
The conditions of data set [9]: Huntington's disease, N=11; cited from earlier work.
Data set [10] deals with amyotrophic lateral sclerosis. The settings on record: cited from earlier work.
A short description of data set [11]: Dextromethorphan with quinidine in healthy subjects (Pope et al.). The class given is in vivo, human. The settings on record: from 68-fold concentration in brain and plasma levels with quinidine. The protocol: The use of quinidine to inhibit the rapid first-pass metabolism of dextromethorphan allows the attainment of potential neuroprotective drug levels in the brain. […] This dose, 30 mg twice daily (BID) given with 60 mg BID dextromethorphan, increased plasma levels of dextromethorphan 25-fold. In this manner, coadministration of 30 mg of quinidine BID with dextromethorphan in the three unsuccessful amyotrophic lateral sclerosis neuroprotection trials could have readily transformed the inadequate dextromethorphan doses into standard neuroprotective plasma concentrations.
Given the 68-fold concentration of dextromethorphan in brain found in neurosurgery patients (Steinberg et al. J Neurosurg. 1996; 84:860-6), an estimated brain concentration of 13,100 ng/g (about 48 microM) is achievable. This corresponds to neuroprotective levels established in preclinical in vitro (Choi et al. J Pharmacol Exp Ther. 1987; 242:713-20) and in vivo (Steinberg et al. Neurol Res. 1993; 15:174-80) studies.
A reasonable concern is that the achievement of higher dextromethorphan plasma concentrations, as well as the use of quinidine, may be associated with an increased occurrence of adverse events, particularly in patients with neurological disorders. […] No difference was found between the extensive and poor metabolizer phenotypes. […]

The conditions of data set [12]: single oral dose 30 mg, extensive metabolizers (N=5); cited from earlier work.

On to `C=C[C@H]1C[N@]2CC[C@@H]1C[C@@H]2[C@@H](O)c1ccnc2ccc(OC)cc12` [quinidine], for which, in data set [1] (human, in vivo), the “lowest dose needed to maximally suppress O-demethylation of dextromethorphan” value is “about 30 mg”. Moreover, the “increase of plasma levels of dextromethorphan” value in data set [1] (quinidine 30 mg BID given with 60 mg BID dextromethorphan) was 25 fold.
Regarding `CNCCC(Oc1ccc(C(F)(F)F)cc1)c1ccccc1` (stereo not drawn) [fluoxetine], the “increase of dextromethorphan concentrations in the blood” value in data set [2] is reported as “effective in increasing dextromethorphan concentrations in the blood of some people”.
Take `COc1ccc2c(c1)[C@]13CCCCC1[C@H](C2)N(C)CC3` (single isomer, unassigned; (+)) [dextromethorphan, (+)-3-methoxy-N-methylmorphinan]: the “neuroprotective plasma (serum) levels” value in data set [3] (animal models of cerebral ischemia) is not below 500 ng/mL. Further, the neuroprotective brain levels entry in [3] (conversion of 10,000 ng/g) is “about 37 microM”. In addition, the AUC0-12 in [1] (120 mg daily dextromethorphan (60 mg BID) with quinidine (30 mg BID), steady state) is 1963 ± 609 ng·h/mL. Moreover, in data set [1] (120 mg daily dextromethorphan (60 mg BID) with quinidine (30 mg BID)), the “steady state peak plasma levels” value is 192 ± 45 ng/mL. In addition, the “neurological symptoms of MTX neurotoxicity” value in data set [4] is on record as “completely resolved neurological symptoms; also recorded: completely resolved neurological deficits”. For the same compound, in data set [5], the “concentration giving almost complete protection” value was 100 µM. Also, in [6] (even at the highest levels, symptoms tolerable and reversible), the adverse reactions result is given as “no patient suffered severe adverse reactions”. Moreover, in data set [6] (neurosurgery patients, maximum 9.64 mg/kg oral dose), the “maximum level in serum” value was 1514 ng/mL. Also, the “maximum level in brain” value in data set [6] (neurosurgery patients) is recorded as 92,700 ng/g. In addition, the “levels in CSF” value in [7] (oral 36-38 mg/kg/day, children, cardiac surgery) is 285 to 939 ng/mL. The adverse events result in [7] (oral 36-38 mg/kg/day) is recorded as “not observed”. Moreover, the “postoperative EEG sharp waves” value in [7] (p=0.02, N=13) is reported as “significantly decreased postoperative EEG sharp waves”. Moreover, the “third ventricle postoperative enlargement, diameter” value in data set [7] (vs. 0.256 cm placebo, p=0.06) was 0.112 cm. The “rate of postoperative periventricular white matter lesions” value in data set [7] (vs. 2/7 placebo) is 0/6. The “steady-state plasma level (Cmax)” value in data set [8] was 190 ng/mL. In data set [9], the “median peak tolerated dose” value was 410 mg/day. The “clinical or neurophysiological parameter improvements” value in data set [10] (Askmark et al., N=14, 150 mg/day 12-week crossover, then 300 mg/day open) is “no clinical or neurophysiological parameter”. For the same compound, in data set [10] (Blin et al., N=49, 1.5 mg/kg/day, 1-year), the “rate of disease progression vs placebo” value was “no significant differences in rate of disease progression”. The 12-month survival result in [10] (Gredal et al., N=45, 150 mg/day) was “did not demonstrate an improvement in 12-month survival”. Besides, the “estimated brain concentration achievable” value in data set [11] is 13,100 ng/g and about 48 microM. Besides, the dextromethorphan in plasma result in data set [12] was “not detectable or at the limits of detection”.
